Measurements taken from the METLIN SMRT retention time set (Domingo-Almenara et al. 2019).

Test: gradient 5% acetonitrile 3 min, to 50% in 2 min, to 85% in 15 min, held 3 min, 100 µL/min
Details: column: Zorbax Extend-C18 2.1 x 50 mm; eluents: water / acetonitrile, 0.1% formic acid
Summary of the method: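 Standards, all pure, were combined into mixtures of ~100 molecules and run at 100 μL/min on a Zorbax Extend-C18 column (2.1 × 50 mm, 1.8 μm) with water and acetonitrile, each containing 0.1% formic acid. A coupled quadrupole time-of-flight mass spectrometer operated in positive and negative ionization mode. Retention time values come from computationally picked adduct peaks, each inspected manually.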

SMILES | RP-LC retention time
Cc1noc(C)c1CNC(=O)c1cccc(OC(F)(F)F)c1 | 864 s
CCOc1ccc(-c2ccc(=O)n(Cc3nc(-c4cccc(OC)c4)no3)n2)cc1 | 949 s
O=C(NCc1cc(F)cc(F)c1)C1CCCN(c2cnc3nccnc3c2)C1 (stereo not given) | 707 s
Cc1ccc(NC(=O)NC2CCN(c3ccc(C)c(C)c3)C2=O)cc1 (stereo not given) | 931 s
O=C(NCc1ccc(F)cc1)Nc1cnc2c(c1)CCC2 | 531 s
COCCn1nc2n(c1=O)CCN(C(=O)c1cc(C3CC3)[nH]n1)CC2 | 596 s
Cc1cccc(OCc2nc(-c3cccc(-c4csc(C)n4)c3)no2)c1 | 1250 s
Cc1ccc2nc(-c3ccc(NC(=O)Cn4cnc(C)cc4=O)cc3)sc2c1 | 762 s
COc1ccc(Cl)cc1NC(=O)N1CCc2c(c(-c3nnc(-c4ccc(F)cc4)o3)nn2C)C1 | 993 s
COCCCN(Cc1ccco1)c1nc(-c2ccc(OC)cc2)nc2ccccc12 | 823 s
O=C1NCCc2c(OCC(=O)N3N=C(c4cccs4)CC3c3ccc(F)cc3)cccc21 (stereo not given) | 787 s
Cc1ccc(F)c(NS(=O)(=O)c2ccc3c(c2)C(=O)N(C)c2ncccc2O3)c1 | 924 s
Cc1ccc(CNC(=O)C2(C)CN(S(C)(=O)=O)CC(=O)N2c2cccc(F)c2)cc1 (stereo not given) | 818 s
Cc1ccccc1CNC(=O)c1c(C)sc2ccn(CC(C)C)c(=O)c12 | 1010 s
Cc1cccc(NC(=O)Cn2c(C)nc3c(sc4nc(-c5ccccc5)ccc43)c2=O)c1 | 880 s
CN(C)C(=O)c1cn(C2CN(C(=O)c3cccc(C#N)c3)C2)nn1 | 613 s
CCOC(=O)c1c(C)c(CCC(=O)N2CCN(CC)CC2)n(CC)c1C | 631 s
CC1CCCN(c2ncc(S(=O)(=O)c3ccc(C(C)C)cc3)c(N)n2)C1 (stereo not given) | 807 s
CS(=O)(=O)N1CCCC1C(=O)Nc1ccc(F)cc1 (stereo not given) | 693 s
CC1CCC(NC(=O)c2cc3sc(Cl)cc3n2C)CC1 (stereo not given) | 1230 s
COCCn1cc(CCNC(=O)Nc2cc(C)ccc2C)c2cccnc21 | 752 s
Cc1ccc(S(=O)(=O)N2CCCCC2CCNC(=O)c2cccn(C)c2=O)cc1 (stereo not given) | 760 s
CCc1cc2c(cc(C(=O)NCc3cccs3)n2C)s1 | 1010 s
Cc1ccc(CN2CCCC(c3nc(C(C)C)no3)CCNC(=O)CC2)o1 (stereo not given) | 636 s
Cc1nn(C)c(C)c1CCC(=O)N1CCN(S(C)(=O)=O)CC1 | 543 s
CC1=NOC(C)(CNS(=O)(=O)c2ccc(F)cc2)C1 (stereo not given) | 728 s

SMILES | RP-LC retention time
CN(C)c1cccc(C(=O)Nc2cc(-c3ccccn3)no2)c1 | 776 s
CC(CCNC(=O)CN1C(=O)C2CCCCN2c2ccc(C(=O)N3CCCC3)cc21)N1CCCC1 (stereo not given) | 614 s
CCn1c(=O)sc2cc(S(=O)(=O)N3CCC(C(=O)NCc4cccnc4)CC3)ccc21 | 610 s
O=S(=O)(Nc1ccc(F)cc1)c1cccc(-c2nc(-c3ccccc3)no2)c1 | 1120 s
Cc1ccc2c(c1)C(=O)NC1(CCN(C(=O)c3ccc(F)c(F)c3)CC1)N2C | 795 s
O=C1C(OC2CCN(S(=O)(=O)c3ccccc3Cl)CC2)CCN1CC1CC1 (stereo not given) | 870 s
COCCNC(=O)c1nn(-c2ccc(F)cc2)nc1CO | 730 s
CCOC(=O)C1CCN(CC(O)COc2cc(C)cc(C)c2C)CC1 (stereo not given) | 597 s
Clc1ccc(Cc2nnc3sc(-c4ccc5ccccc5n4)nn23)cc1 | 1210 s
N#Cc1ccc(NS(=O)(=O)c2c[nH]c3ncccc23)cc1 | 686 s
CCCNC(=O)N(C1CCOCC1)C1CCN(C(=O)c2ccsc2)CC1 | 680 s
CCN(CC)C(=O)Cn1c(CO)nc2ccccc21 | 563 s
COc1ncc(C(=O)Nc2ccc(Cl)cc2)c(C)n1 | 786 s
CC(C)COc1cc(=O)n2c(c1C(=O)NCCCn1cccn1)CCCCC2 | 659 s
O=C(Cn1cnc(-c2cccs2)cc1=O)NCCn1nc(-c2ccco2)ccc1=O | 636 s
CCN1C(=O)c2cccnc2Sc2cc(C(=O)NC3CCCCC3)ccc21 | 826 s
Cc1cc(C)c(-c2csc(Nc3ccccn3)n2)cc1C | 1030 s
CCNC(=O)N1CCOc2cc(C)ccc21 | 768 s
CCC(=O)N1CCc2cc(N3CC(C(=O)Nc4ccc(OC)c(F)c4)CC3=O)ccc21 (stereo not given) | 738 s
O=C(CN1CCCc2nc(C3CC3)ncc2C1=O)NC1CCCCC1 | 723 s
O=[N+]([O-])c1ccc2c(c1)CN(S(=O)(=O)c1cccs1)CC2 | 878 s
COc1cccc(CNC(=O)C2(C)CCCN(C(=O)Nc3cc(OC)ccc3OC)C2)c1 (stereo not given) | 844 s
CCC(C)(C)NS(=O)(=O)c1cc(-c2nc(C(C)(C)C)cs2)cs1 | 1300 s
Cc1ccc(C)c(C(=O)N2CCc3c(c(-c4nc(C5CC5)no4)nn3C)C2)c1 | 854 s
COc1cc(OC)cc(C(=O)Nc2cc(-c3cn4cccnc4n3)ccc2OC)c1 | 708 s
CCOc1ccc(-c2noc(-c3nn(-c4ccccc4)ccc3=O)n2)cc1 | 919 s

Next, values leading:

RP-LC retention time | SMILES
628 s | Cc1cnc(C(=O)N2CCC(c3noc(-c4ccccn4)n3)C2)cn1 (stereo not given)
812 s | CCCCNC(=O)C1CCCN(C(=O)Nc2ccc(NC(=O)Nc3ccccc3)cc2)C1 (stereo not given)
831 s | O=C(c1cn2ccnc(-c3ccccc3)c2n1)N1CCCC1
605 s | O=C(C1CCN(c2ccc(-n3cccn3)nn2)CC1)N1CCN(c2ncccn2)CC1
977 s | Cc1ccc(Cl)cc1N1CCN(C(=O)CN2C(=O)C3C4C=CC(C4)C3C2=O)CC1 (stereo not given)
1030 s | CCCN1C(=O)COc2ccc(-c3csc(NC(=O)c4ccccc4Cl)n3)cc21
714 s | Cc1ccc(NC(=O)Cn2c(C(C)C)nc3c(c2=O)CCN(Cc2ccccc2)C3)cc1
812 s | CC1=C(c2ccc(F)cc2)S(=O)(=O)N=C1N1CCCN(C(=O)Cc2ccsc2)CC1
603 s | Cc1cccc(CN2CCC(CNC(=O)Nc3cn(C)c(=O)c4ccccc34)CC2)c1
722 s | CSc1ccccc1CN1CCC(CNC(=O)c2ccccc2Cl)CC1
640 s | O=C(Cc1ccccc1Cl)N1CCN(c2nc(CN3CCOCC3)cs2)CC1
621 s | Cc1ccc(N2CCN(Cc3c(C)noc3C)CC2)cc1
967 s | Cc1ccc(Cn2c(N3CCCC(C(=O)NC4CCCC4)C3)nc3ccsc3c2=O)cc1 (stereo not given)
628 s | Cc1ccc2cc(CCC(=O)NCCN3CCCCCC3)c(=O)[nH]c2c1
725 s | Cc1ccc(NC(=O)N2CCN(Cc3nc4cc(C)ccc4o3)CC2)cc1
793 s | O=C(Nc1nnc(C2CC(=O)N(c3ccccc3)C2)o1)c1ccc(C(F)(F)F)cc1 (stereo not given)
721 s | O=C(CN1C(=O)COc2ccc(C(=O)N3CCCC3)cc21)N1CCc2ccccc2C1
612 s | CCN1CCN(CCNC(=O)Cc2cccn2-c2ccc(Cl)cc2)CC1
1090 s | Cc1ccc2c(c1)N(Cc1ccccc1F)N=C(C(=O)N1CCC(C)CC1)S2(=O)=O

RP-LC retention time | SMILES
617 s | CCCc1cc(N2CCN(C(=O)c3ccco3)CC2)nc2nnc(CC)n12
564 s | Cc1cc(N2CCN(C)CC2)nc2ccc(NC(=O)NCc3ccco3)cc12
549 s | NCC(O)COCC1COc2ccccc2O1 (stereo not given)
816 s | Cc1cccc(-c2cc(C(N)=O)c3ccccc3n2)c1
578 s | O=C(C1COc2ccccc2O1)N1CCN(Cc2nc3ccccc3[nH]2)CC1 (stereo not given)
543 s | Cc1ccc(OCC(=O)NCC2CCN(Cc3ccncc3)CC2)cc1
590 s | COCCNC(=O)CCc1c(-c2ccc(Cl)cc2)nc2ccccn12
1130 s | O=C(CN1CCCCC1c1nc(-c2cccc(F)c2)no1)Nc1ccc(F)cc1 (stereo not given)
750 s | CC(C)(C)C(=O)Nc1ccc2nc(N3CCN(c4ccccc4Cl)CC3)cc(C(=O)O)c2c1
866 s | O=C(CCn1nnc2cc(-c3noc(COc4ccc(Cl)cc4)n3)ccc21)N1CCOCC1
877 s | CCOc1ccc(NC(=O)C2CCN(S(C)(=O)=O)c3cc(Cl)ccc3O2)cc1 (stereo not given)
698 s | Cc1c(N2CCN(C(=O)c3cccc(F)c3)CC2)c(=O)n(C)c(=O)n1C
608 s | COc1cc([C@@H]2c3cc4c(cc3[C@H](O)[C@@H](CO)[C@@H]2C(=O)N2CCN(C(C)C)CC2)OCO4)cc(OC)c1OC
859 s | O=C(C1CCN(S(=O)(=O)c2ccc(-c3noc(C4CC4)n3)cc2)CC1)N1CCCC1
1230 s | CCn1c(=O)c(N2CCCC(C(=O)N3CCN(c4ccc(Cl)cc4)CC3)C2)nc2ccccc21 (stereo not given)
744 s | Cc1cccc(CNS(=O)(=O)c2cc(-c3[nH]ncc3C(=O)N3CCCC3)oc2C)c1
691 s | CC(NC(=O)c1ccco1)c1nc2ccccc2n1CC(=O)N(C(C)C)C(C)C (stereo not given)
593 s | COc1cccc(CNC(=O)N2CCN(Cc3c(C)noc3C)CC2)c1
743 s | COc1ccc2c(=O)c3c(=O)n(Cc4ccccc4)c(-c4cccs4)nc3oc2c1
